Here are results for 30 compounds from patent publication US10758534B2 (Vertex Pharmaceuticals Incorporated, priority 2014, dated 2020).

As a reminder, the EC30 is the concentration needed for an effect of 30%.

Molecules are shown by their SMILES.

The target of one assay is T1, F508del (Homo sapiens, UniProt P13569, DEL508-508).
T1 construct: expressed in transfected cells
T1 sequence (P13569 with tags, fused parts or gaps DEL508-508): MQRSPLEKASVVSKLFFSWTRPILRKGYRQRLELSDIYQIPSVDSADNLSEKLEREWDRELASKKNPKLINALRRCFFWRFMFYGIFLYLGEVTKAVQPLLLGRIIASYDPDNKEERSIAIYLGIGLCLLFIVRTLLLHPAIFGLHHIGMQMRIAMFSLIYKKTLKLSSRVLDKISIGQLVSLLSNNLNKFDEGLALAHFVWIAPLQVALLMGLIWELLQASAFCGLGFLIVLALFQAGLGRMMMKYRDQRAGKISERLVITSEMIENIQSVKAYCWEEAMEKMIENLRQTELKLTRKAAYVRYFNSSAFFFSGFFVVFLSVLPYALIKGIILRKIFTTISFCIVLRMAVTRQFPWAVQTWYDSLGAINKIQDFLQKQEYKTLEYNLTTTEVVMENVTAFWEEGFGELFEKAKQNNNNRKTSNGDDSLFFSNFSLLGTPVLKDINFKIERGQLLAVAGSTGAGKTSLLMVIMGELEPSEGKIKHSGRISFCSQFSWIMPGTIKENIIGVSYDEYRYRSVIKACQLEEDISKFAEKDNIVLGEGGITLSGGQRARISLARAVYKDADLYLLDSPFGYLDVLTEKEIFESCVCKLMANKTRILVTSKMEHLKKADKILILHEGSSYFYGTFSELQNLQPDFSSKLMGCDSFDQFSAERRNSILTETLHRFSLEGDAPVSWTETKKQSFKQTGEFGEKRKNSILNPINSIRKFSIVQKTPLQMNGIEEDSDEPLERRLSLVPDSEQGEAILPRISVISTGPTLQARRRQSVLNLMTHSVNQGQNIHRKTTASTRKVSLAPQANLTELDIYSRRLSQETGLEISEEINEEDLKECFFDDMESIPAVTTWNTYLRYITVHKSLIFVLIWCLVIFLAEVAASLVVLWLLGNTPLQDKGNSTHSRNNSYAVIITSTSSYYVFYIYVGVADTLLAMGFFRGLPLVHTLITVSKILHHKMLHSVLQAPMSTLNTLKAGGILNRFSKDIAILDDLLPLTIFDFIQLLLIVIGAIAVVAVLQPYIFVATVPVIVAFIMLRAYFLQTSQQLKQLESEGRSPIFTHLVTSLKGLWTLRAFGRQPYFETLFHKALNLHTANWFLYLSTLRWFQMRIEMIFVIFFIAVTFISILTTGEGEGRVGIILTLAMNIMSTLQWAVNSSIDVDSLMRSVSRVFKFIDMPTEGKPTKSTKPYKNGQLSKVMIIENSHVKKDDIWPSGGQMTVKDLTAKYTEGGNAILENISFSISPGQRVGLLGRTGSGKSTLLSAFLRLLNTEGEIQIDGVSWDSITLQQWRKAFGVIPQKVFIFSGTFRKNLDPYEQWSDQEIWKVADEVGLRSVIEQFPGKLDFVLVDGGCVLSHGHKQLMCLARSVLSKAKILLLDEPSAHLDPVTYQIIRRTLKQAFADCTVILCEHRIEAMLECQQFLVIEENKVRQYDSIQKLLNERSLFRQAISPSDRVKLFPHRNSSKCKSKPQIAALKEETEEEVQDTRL
In words: Protocol 2: FRET membrane potential optical assay (VIPR), identification of correction compounds.
Conditions: not given
It counts as cell-based. A digest of the protocol:
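Correction of the F508del trafficking defect is scored as forskolin (10 μM)/genistein (20 μM)-stimulated Cl^− efflux in NIH3T3 mouse fibroblasts after a 16 hr, 37° C. compound exposure. Depolarization was followed optically using voltage-sensing FRET dyes.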
Turning to `[2H]C1([2H])[C@@H](C)CC(C)(C)N1c1nc(-c2cc(F)cc(OCC(C)C)c2)ccc1C(=O)NS(=O)(=O)c1ccccc1` [Compound 2560, N-(benzenesulfonyl)-2-[(3S)-2,2-dideuterio-3,5,5-trimethyl-pyrrolidin-1-yl]-6-(3-fluoro-5-isobutoxy-phenyl)pyridine-3-carboxamide], the EC30 was less than 3000 nM.

Still in this assay, the particulars now being: F508del CFTR modulator activity; compounds of Table 1; read-out: EC30.
`CC1CN(c2ncccc2C(=O)NS(=O)(=O)c2cccc(Oc3cc(F)cc(Cl)c3)n2)C(C)(C)C1` (stereo not drawn) [Compound 2719]: the EC30 is less than 3000 nM. Take `CC1CN(c2ncccc2C(=O)NS(=O)(=O)c2cccc(Oc3ccccc3Cl)n2)C(C)(C)C1` (stereo not drawn) [Compound 2298, N—[[6-(2-chlorophenoxy)-2-pyridyl]sulfonyl]-2-(2,2,4-trimethylpyrrolidin-1-yl)pyridine-3-carboxamide]: the EC30 was less than 3000 nM. For the compound `C[C@@H]1CN(c2nc(-c3cccc(C(F)(F)F)c3)ccc2C(=O)NS(=O)(=O)N2CC[C@H](N)C2)C(C)(C)C1` [Compound 2220, N-[(3S)-3-aminopyrrolidin-1-yl]sulfonyl-6-[3-(trifluoromethyl)phenyl]-2-[(4S)-2,2,4-trimethylpyrrolidin-1-yl]pyridine-3-carboxamide], the EC30 lay within 3000 to 10000 nM. The same measure, in the same setting: the result for `CC1CN(c2ncccc2C(=O)NS(=O)(=O)c2cccc(OCCC(C)(C)C)n2)C(C)(C)C1` (stereo not drawn) [Compound 2025, N—[[6-(3,3-dimethylbutoxy)-2-pyridyl]sulfonyl]-2-(2,2,4-trimethylpyrrolidin-1-yl)pyridine-3-carboxamide] reads less than 3000 nM; that for `Cc1c(F)cccc1-c1ccc(C(=O)NS(=O)(=O)c2ccc[nH]c2=O)c(N2C[C@@H](C)CC2(C)C)n1` [Compound 2491, 6-(3-fluoro-2-methyl-phenyl)-N-[(2-oxo-1H-pyridin-3-yl)sulfonyl]-2-[(4S)-2,2,4-trimethylpyrrolidin-1-yl]pyridine-3-carboxamide], less than 3000 nM. Still for that read-out and setting: the result for `CC1CN(c2ncccc2C(=O)NS(=O)(=O)c2cccc(NCc3cc(F)cc(F)c3)n2)C(C)(C)C1` (stereo not drawn) [Compound 2421, N—[[6-[(3,5-difluorophenyl)methylamino]-2-pyridyl]sulfonyl]-2-(2,2,4-trimethylpyrrolidin-1-yl)pyridine-3-carboxamide] reads less than 3000 nM.

On to `CCCOCCNc1cccc(S(=O)(=O)NC(=O)c2cccnc2N2CC(C)CC2(C)C)n1` (stereo not drawn) [Compound 2602, N—[[6-(2-propoxyethylamino)-2-pyridyl]sulfonyl]-2-(2,2,4-trimethylpyrrolidin-1-yl)pyridine-3-carboxamide], for which the EC30 was in the range of 3000 to 10000 nM. Same read-out and setting: the result for `CC1CN(c2ncccc2C(=O)NS(=O)(=O)c2cccc(OCC3CC3)n2)C(C)(C)C1` (stereo not drawn) [Compound 2342, N—[[6-(cyclopropylmethoxy)-2-pyridyl]sulfonyl]-2-(2,2,4-trimethylpyrrolidin-1-yl)pyridine-3-carboxamide] reads less than 3000 nM. Same read-out and setting: the result for `Cc1cccc(-c2ccc(C(=O)NS(=O)(=O)c3ccc[nH]c3=O)c(N3C[C@@H](C)CC3(C)C)n2)c1O` [Compound 2300, 6-(2-hydroxy-3-methyl-phenyl)-N-[(2-oxo-1H-pyridin-3-yl)sulfonyl]-2-[(4S)-2,2,4-trimethylpyrrolidin-1-yl]pyridine-3-carboxamide] reads 3000 to 10000 nM. As to `C[C@@H]1CN(c2nc(-c3ccccc3)ccc2C(=O)NS(=O)(=O)c2ccccc2)C(C)(C)C1` [Compound 2092, N-(benzenesulfonyl)-6-phenyl-2-[(4S)-2,2,4-trimethylpyrrolidin-1-yl]pyridine-3-carboxamide], the EC30 is less than 3000 nM. Take `CC1CN(c2nc(C(C)(C)C)ccc2C(=O)NS(=O)(=O)c2cccc(OCc3ccc4c(c3)OCO4)n2)C(C)(C)C1` (stereo not drawn) [Compound 2714]: the EC30 was less than 3000 nM.

On to `COc1ccc(-c2ccc(C(=O)NS(=O)(=O)c3ccc[nH]c3=O)c(N3C[C@@H](C)CC3(C)C)n2)cc1` [Compound 2080, 6-(4-methoxyphenyl)-N-[(2-oxo-1H-pyridin-3-yl)sulfonyl]-2-[(4S)-2,2,4-trimethylpyrrolidin-1-yl]pyridine-3-carboxamide], for which the EC30 was 3000 to 10000 nM. Turning to `Cc1cccc(-c2ccc(C(=O)NS(=O)(=O)N3CC[C@H](N)C3)c(N3C[C@@H](C)CC3(C)C)n2)c1C` [Compound 2225, N-[(3S)-3-aminopyrrolidin-1-yl]sulfonyl-6-(2,3-dimethylphenyl)-2-[(4S)-2,2,4-trimethylpyrrolidin-1-yl]pyridine-3-carboxamide], the EC30 fell in the range of 3000 to 10000 nM.

Turning to `COc1cccc(CCNc2cccc(S(=O)(=O)NC(=O)c3cccnc3N3CC(C)CC3(C)C)n2)c1` (stereo not drawn) [Compound 2465, N—[[6-[2-(3-methoxyphenyl)ethylamino]-2-pyridyl]sulfonyl]-2-(2,2,4-trimethylpyrrolidin-1-yl)pyridine-3-carboxamide], the EC30 is less than 3000 nM.

Still in this assay, the particulars now being: Table 3; compounds of Table 1 as modulators of CFTR activity; protocol not stated.
Regarding `Cc1cccc(C)c1Cn1nc(-c2ccc(OC(F)(F)F)cc2)cc1C(=O)NS(=O)(=O)c1ccccc1` [Compound 159, N-(benzenesulfonyl)-2-[(2,6-dimethylphenyl)methyl]-5-[4-(trifluoromethoxy)phenyl]pyrazole-3-carboxamide], the EC30 result was “+++ (“+++” means <3 uM)”.

As for `CC(C)(C)c1ccc(C(=O)NS(=O)(=O)c2cccc(N)c2)c(-c2ccc(Cl)cc2)n1` [Compound 223, N-(3-aminophenyl)sulfonyl-6-tert-butyl-2-(4-chlorophenyl)pyridine-3-carboxamide], the EC30 result is on record as “+++ (“+++” means <3 uM)”. On the same count and under the same terms, the result for `C[C@@H](c1ccccc1)n1nc(C(C)(C)C)cc1C(=O)NS(=O)(=O)c1cccc(N)c1` [Compound 138, N-(3-aminophenyl)sulfonyl-5-tert-butyl-2-[(1S)-1-phenylethyl]pyrazole-3-carboxamide] reads “++ (“++” means between 3 uM and 10 uM)”. The same measure, in the same setting: the result for `CC(C)(C)c1ccc(-c2nc(C(C)(C)C)ccc2C(=O)NS(=O)(=O)c2cccc(N)c2)cc1` [Compound 252, N-(3-aminophenyl)sulfonyl-6-tert-butyl-2-(4-tert-butylphenyl)pyridine-3-carboxamide] reads “+++ (“+++” means <3 uM)”; that for `CCCOc1ccc(F)c(-c2ccc(C(=O)NS(=O)(=O)c3ccc[nH]c3=O)c(Oc3c(C)cc(C)cc3C)n2)c1` [Compound 552, 6-(2-fluoro-5-propoxy-phenyl)-N-[(2-oxo-1H-pyridin-3-yl)sulfonyl]-2-(2,4,6-trimethylphenoxy)pyridine-3-carboxamide], “++ (“++” means between 3 uM and 10 uM)”; that for `Cc1cc(C)c(Oc2nc(C(C)(C)C)ccc2C(=O)NS(=O)(=O)c2c[nH]ccc2=O)c(C)c1` [Compound 107, 6-tert-butyl-N-[(4-oxo-1H-pyridin-3-yl)sulfonyl]-2-(2,4,6-trimethylphenoxy)pyridine-3-carboxamide], “+++ (“+++” means <3 uM)”.

With `Cc1cc(C)c(Oc2nc(-c3ccc(C)c(O)c3)ccc2C(=O)NS(=O)(=O)c2cccc(N)n2)c(C)c1` [Compound 793, N-[(6-amino-2-pyridyl)sulfonyl]-6-(3-hydroxy-4-methyl-phenyl)-2-(2,4,6-trimethylphenoxy)pyridine-3-carboxamide], the EC30 entry is “+++ (“+++” means <3 uM)”. On the same count and under the same terms, with `CCCOc1cc(-c2ccc(C(=O)NS(=O)(=O)c3cccc(N)n3)c(N3CCC(C)CC3)n2)ccc1Cl` [Compound 692, N-[(6-amino-2-pyridyl)sulfonyl]-6-(4-chloro-3-propoxy-phenyl)-2-(4-methyl-1-piperidyl)pyridine-3-carboxamide] the entry was “+++ (“+++” means <3 uM)”; with `Cc1cc(C)c(Oc2nc(C(C)(C)C)ccc2C(=O)NS(=O)(=O)c2ccccc2C#N)c(C)c1` [Compound 78, 6-tert-butyl-N-(2-cyanophenyl)sulfonyl-2-(2,4,6-trimethylphenoxy)pyridine-3-carboxamide], “+++ (“+++” means <3 uM)”. Same read-out and setting: with `Cc1cc(C)c(Oc2nc(C3CCOCC3)ccc2C(=O)NS(=O)(=O)c2cccc(N)n2)c(C)c1` [Compound 748, N-[(6-amino-2-pyridyl)sulfonyl]-6-tetrahydropyran-4-yl-2-(2,4,6-trimethylphenoxy)pyridine-3-carboxamide] the entry was “++ (“++” means between 3 uM and 10 uM)”. The same measure, in the same setting: the result for `CC(C)Oc1cncc(-c2ccc(C(=O)NS(=O)(=O)c3cccc(N)n3)c(N3[C@H](C)CC[C@@H]3C)n2)c1` [Compound 400, N-[(6-amino-2-pyridyl)sulfonyl]-2-[(2S,5R)-2,5-dimethylpyrrolidin-1-yl]-6-(5-isopropoxy-3-pyridyl)pyridine-3-carboxamide] reads “++ (“++” means between 3 uM and 10 uM)”; that for `COc1ncccc1S(=O)(=O)NC(=O)C1c2ccccc2CN1Cc1c(C)cc(C)cc1C` (stereo not drawn) [Compound 218, N-[(2-methoxy-3-pyridyl)sulfonyl]-2-[(2,4,6-trimethylphenyl)methyl]isoindoline-1-carboxamide], “++ (“++” means between 3 uM and 10 uM)”; that for `Cc1cc(C)c(Oc2nc(C3CCC(C)CC3)ccc2C(=O)NS(=O)(=O)c2ccc[nH]c2=O)c(C)c1` (stereo not drawn) [Compound 743, 6-(4-methylcyclohexyl)-N-[(2-oxo-1H-pyridin-3-yl)sulfonyl]-2-(2,4,6-trimethylphenoxy)pyridine-3-carboxamide], “+++ (“+++” means <3 uM)”. Regarding `CC1CC(C)CN(c2nc(C(C)(C)C)ccc2C(=O)NS(=O)(=O)c2cccc(N)n2)C1` (stereo not drawn) [Compound 617, N-[(6-amino-2-pyridyl)sulfonyl]-6-tert-butyl-2-(3,5-dimethyl-1-piperidyl)pyridine-3-carboxamide], the EC30 entry is “+++ (“+++” means <3 uM)”.

On to `Cc1cccc(C)c1Cn1nc(-c2ccc(C(F)(F)F)cc2)cc1C(=O)NS(=O)(=O)c1ccccc1` [Compound 316, N-(benzenesulfonyl)-2-[(2,6-dimethylphenyl)methyl]-5-[4-(trifluoromethyl)phenyl]pyrazole-3-carboxamide], for which the EC30 entry is listed as “+++ (“+++” means <3 uM)”.
